Here are results for 28 molecules from patent US8471005B2 (Cephalon, Inc., priority 2008, dated 2013).

The target of assay [1] is T1, JAK2 (Homo sapiens, UniProt O60674).
T1 construct: host or cells: baculovirus expression system
The assay can be described thus: Recombinant Human JAK2 Kinase Assay (TRF). Type of assay: biochemical. The following applies: JAK2 Kinase Inhibition; read-out: JAK2 Potency. The gist of the method: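 Baculovirus-expressed JAK2 (15 ng/ml) phosphorylated a biotinylated 15-mer peptide captured on Neutravidin-coated plates, in 20 mM HEPES pH 7.2 with 0.2 μM ATP, 1 mM MnCl2, 0.1% BSA and 2.5% DMSO. Reaction ran 20 min at room temperature; phosphopeptide was detected by time-resolved fluorescence with Eu-N1-labelled PY100 antibody.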

The target in assay [2] is T2, ALK (Homo sapiens, UniProt Q9UM73).
T2 construct: host or cells: baculovirus expression system
T2 sequence (Q9UM73 19-1620): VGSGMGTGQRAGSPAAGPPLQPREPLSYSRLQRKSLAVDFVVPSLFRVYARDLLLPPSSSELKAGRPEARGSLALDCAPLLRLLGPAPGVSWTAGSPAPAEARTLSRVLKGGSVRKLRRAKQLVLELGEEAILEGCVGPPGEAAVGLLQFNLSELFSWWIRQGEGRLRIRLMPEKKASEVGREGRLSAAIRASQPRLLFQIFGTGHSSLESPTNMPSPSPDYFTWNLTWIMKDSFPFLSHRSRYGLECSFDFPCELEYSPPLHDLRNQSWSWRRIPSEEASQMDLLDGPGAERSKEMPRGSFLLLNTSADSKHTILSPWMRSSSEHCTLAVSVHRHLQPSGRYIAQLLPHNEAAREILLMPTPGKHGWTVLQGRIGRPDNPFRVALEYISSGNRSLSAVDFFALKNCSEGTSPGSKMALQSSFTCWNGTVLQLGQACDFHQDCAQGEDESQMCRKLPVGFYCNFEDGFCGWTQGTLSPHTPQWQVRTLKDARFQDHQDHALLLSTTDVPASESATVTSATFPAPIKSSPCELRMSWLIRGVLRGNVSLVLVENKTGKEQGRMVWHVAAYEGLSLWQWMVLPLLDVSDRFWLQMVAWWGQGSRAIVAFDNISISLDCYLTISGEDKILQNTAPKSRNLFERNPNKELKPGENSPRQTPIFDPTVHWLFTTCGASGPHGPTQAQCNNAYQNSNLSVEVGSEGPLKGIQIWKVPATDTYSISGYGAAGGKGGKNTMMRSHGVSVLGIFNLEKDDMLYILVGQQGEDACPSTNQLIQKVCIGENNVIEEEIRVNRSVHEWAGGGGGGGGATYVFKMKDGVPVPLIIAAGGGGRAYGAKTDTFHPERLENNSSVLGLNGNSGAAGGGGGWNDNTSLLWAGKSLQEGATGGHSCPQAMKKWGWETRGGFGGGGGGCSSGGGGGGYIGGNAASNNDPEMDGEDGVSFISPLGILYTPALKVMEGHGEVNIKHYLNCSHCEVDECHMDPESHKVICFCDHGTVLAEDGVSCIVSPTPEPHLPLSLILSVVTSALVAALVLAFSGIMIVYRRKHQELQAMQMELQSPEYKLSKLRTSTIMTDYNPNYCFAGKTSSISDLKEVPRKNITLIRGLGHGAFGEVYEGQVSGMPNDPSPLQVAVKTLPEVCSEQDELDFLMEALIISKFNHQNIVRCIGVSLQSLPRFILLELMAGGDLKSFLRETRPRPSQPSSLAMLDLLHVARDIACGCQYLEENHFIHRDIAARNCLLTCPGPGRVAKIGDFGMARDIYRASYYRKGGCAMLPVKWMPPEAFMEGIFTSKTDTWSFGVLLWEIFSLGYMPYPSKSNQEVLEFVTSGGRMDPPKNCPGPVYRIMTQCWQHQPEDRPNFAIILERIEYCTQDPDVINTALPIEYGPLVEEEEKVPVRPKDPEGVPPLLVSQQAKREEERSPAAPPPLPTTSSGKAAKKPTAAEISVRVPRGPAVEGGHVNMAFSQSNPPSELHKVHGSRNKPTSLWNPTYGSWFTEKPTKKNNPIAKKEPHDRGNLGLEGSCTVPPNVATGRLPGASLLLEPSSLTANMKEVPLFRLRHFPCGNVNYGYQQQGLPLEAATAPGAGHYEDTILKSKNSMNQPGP
The assay can be described thus: ALK Kinase Assay (ELISA/TRF, PLC-γ substrate). It counts as biochemical. The note with it: ALK Kinase Inhibition; read-out: ALK Potency. The method in brief: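 PLC-γ substrate coated at 10 μg/mL in TBS; reaction started with 30 ng/ml ALK, run 15 min at 37° C. Phosphoproduct detected by TRF with Eu-N1-labeled PT66 anti-phosphotyrosine antibody. IC50 from sigmoidal variable-slope fit of percent inhibition versus log concentration.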
On the technique in general: ELISA stands for enzyme-linked immunosorbent assay.

The structures appear in SMILES notation.

T1 sequence (O60674 whole entry): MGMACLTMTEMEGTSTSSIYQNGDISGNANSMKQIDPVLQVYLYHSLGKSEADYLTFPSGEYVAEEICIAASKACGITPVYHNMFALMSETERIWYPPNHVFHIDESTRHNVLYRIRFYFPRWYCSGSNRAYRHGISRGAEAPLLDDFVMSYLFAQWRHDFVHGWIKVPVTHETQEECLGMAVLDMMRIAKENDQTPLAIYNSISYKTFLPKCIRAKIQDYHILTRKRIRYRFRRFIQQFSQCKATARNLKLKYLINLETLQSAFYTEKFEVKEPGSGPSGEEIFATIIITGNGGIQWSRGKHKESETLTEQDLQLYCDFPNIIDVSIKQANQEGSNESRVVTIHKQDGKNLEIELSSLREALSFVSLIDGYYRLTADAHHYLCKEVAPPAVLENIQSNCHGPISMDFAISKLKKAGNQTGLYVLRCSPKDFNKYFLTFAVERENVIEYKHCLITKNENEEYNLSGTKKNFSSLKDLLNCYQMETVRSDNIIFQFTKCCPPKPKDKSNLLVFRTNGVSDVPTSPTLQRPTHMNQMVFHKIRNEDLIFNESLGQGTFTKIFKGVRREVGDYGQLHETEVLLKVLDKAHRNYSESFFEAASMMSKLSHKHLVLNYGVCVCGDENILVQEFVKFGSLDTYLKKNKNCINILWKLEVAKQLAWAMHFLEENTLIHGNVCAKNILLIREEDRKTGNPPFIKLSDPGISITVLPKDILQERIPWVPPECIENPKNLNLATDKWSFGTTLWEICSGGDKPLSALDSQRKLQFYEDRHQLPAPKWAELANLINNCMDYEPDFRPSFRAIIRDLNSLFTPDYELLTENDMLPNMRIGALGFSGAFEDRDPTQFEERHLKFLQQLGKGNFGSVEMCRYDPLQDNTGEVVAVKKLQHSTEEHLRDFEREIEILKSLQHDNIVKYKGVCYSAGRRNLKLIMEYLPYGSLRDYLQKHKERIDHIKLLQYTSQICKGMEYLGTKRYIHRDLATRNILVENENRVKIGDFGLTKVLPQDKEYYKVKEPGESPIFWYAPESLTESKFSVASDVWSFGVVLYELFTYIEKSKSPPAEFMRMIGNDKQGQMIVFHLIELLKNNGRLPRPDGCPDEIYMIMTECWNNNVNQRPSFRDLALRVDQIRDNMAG

On to `CS(=O)(=O)c1ccc(-c2ccc3cnc(Nc4ccc(N5CCCCC5)cc4)nn23)cc1` [Example 61, [7-(4-Methanesulfonyl-phenyl)-pyrrolo[2,1-f][1,2,4]triazin-2-yl]-(4-piperidin-1-yl-phenyl)-amine], for which the IC50 in assay [1] is below 100 nM; in assay [2], above 10000 nM.
Consider `COc1cc(N2CCN(C)CC2)ccc1Nc1ncc2ccc(-c3ccc(S(C)(=O)=O)cc3)n2n1` [Example 62, [7-(4-Methanesulfonyl-phenyl)-pyrrolo[2,1-f][1,2,4]triazin-2-yl]-[2-methoxy-4-(4-methyl-piperazin-1-yl)-phenyl]-amine], for which the IC50 was below 100 nM in assay [1] and 100 to 1000 nM in assay [2].
Regarding `O=S(=O)(c1ccc(-c2ccc3cnc(Nc4ccc(N5CCOCC5)cc4)nn23)cc1)N1CCCC1` [Example 63, (4-Morpholin-4-yl-phenyl)-{7-[4-(pyrrolidine-1-sulfonyl)-phenyl]-pyrrolo[2,1-f][1,2,4]triazin-2-yl}-amine], the IC50 in assay [1] is below 100 nM; in assay [2], above 10000 nM.
Taken in the same sequence, the figures for `COc1cc(Nc2ncc3ccc(-c4cccc(Cl)c4)n3n2)ccc1N1CCN(C)CC1` [Example 64, [7-(3-Chloro-phenyl)-pyrrolo[2,1-f][1,2,4]triazin-2-yl]-[3-methoxy-4-(4-methyl-piperazin-1-yl)-phenyl]-amine] were below 100 nM and below 100 nM.
As for `COc1cc(Nc2ncc3ccc(-c4cccc(Cl)c4)n3n2)ccc1N1CCOCC1` [Example 65, [7-(3-Chloro-phenyl)-pyrrolo[2,1-f][1,2,4]triazin-2-yl]-(3-methoxy-4-morpholin-4-yl-phenyl)-amine], the IC50 in assay [1] was below 100 nM; in assay [2] it was 100 to 1000 nM.
As for `Cc1cc(Nc2ncc3ccc(-c4cccc(Cl)c4)n3n2)ccc1N1CCOCC1` [Example 66, [7-(3-Chloro-phenyl)-pyrrolo[2,1-f][1,2,4]triazin-2-yl]-(3-methyl-4-morpholin-4-yl-phenyl)-amine], the results for the IC50 in assay [1] and in assay [2] were below 100 nM and 1000 to 10000 nM, respectively.
For `Cc1cc(N2CCN(C)CC2)ccc1Nc1ncc2ccc(-c3ccc(S(C)(=O)=O)cc3)n2n1` [Example 67, [7-(4-Methanesulfonyl-phenyl)-pyrrolo[2,1-f][1,2,4]triazin-2-yl]-[2-methyl-4-(4-methyl-piperazin-1-yl)-phenyl]-amine], in that order: below 100 nM and 100 to 1000 nM.
As to `Cc1cc(N2CCN(C)CC2)ccc1Nc1ncc2ccc(-c3cccc(Cl)c3)n2n1` [Example 68, [7-(3-Chloro-phenyl)-pyrrolo[2,1-f][1,2,4]triazin-2-yl]-[2-methyl-4-(4-methyl-piperazin-1-yl)-phenyl]-amine], the IC50 in assay [1] and in assay [2] was below 100 nM in each case.
In the case of `Cc1cc(Nc2ncc3ccc(-c4cccc(Cl)c4)n3n2)ccc1N1CCN(C)CC1` [Example 69, [7-(3-Chloro-phenyl)-pyrrolo[2,1-f][1,2,4]triazin-2-yl]-[3-methyl-4-(4-methyl-piperazin-1-yl)-phenyl]-amine], the IC50 in assay [1] and in assay [2] was below 100 nM throughout.
With `FC(F)(F)c1ccc(Cl)c(-c2ccc3cnc(Nc4ccc(N5CCOCC5)cc4)nn23)c1` [Example 70, [7-(2-Chloro-5-trifluoromethyl-phenyl)-pyrrolo[2,1-f][1,2,4]triazin-2-yl]-(4-morpholin-4-yl-phenyl)-amine], the IC50 in assay [1] is below 100 nM; in assay [2], 1000 to 10000 nM.
Consider `CN(C)S(=O)(=O)c1ccc(-c2ccc3cnc(Nc4ccc(N5CCOCC5)cc4)nn23)cc1` [Example 71, N,N-Dimethyl-4-[2-(4-morpholin-4-yl-phenylamino)-pyrrolo[2,1-f][1,2,4]triazin-7-yl]-benzenesulfonamide], for which the IC50 in assay [1] is below 100 nM; in assay [2] it was above 10000 nM.
Taken in the same sequence, the figures for `O=C(c1ccccc1)c1ccc2cnc(Nc3ccc(N4CCOCC4)cc3)nn12` [Example 72, [2-(4-Morpholin-4-yl-phenylamino)-pyrrolo[2,1-f][1,2,4]triazin-7-yl]-phenyl-methanone] were below 100 nM and 1000 to 10000 nM.
Taken in the same sequence, the figures for `COc1ccc(-c2ccc3cnc(Nc4ccc(N5CCN(C)CC5)cc4OC)nn23)cn1` [Example 73, [2-Methoxy-4-(4-methyl-piperazin-1-yl)-phenyl]-[7-(6-methoxy-pyridin-3-yl)-pyrrolo[2,1-f][1,2,4]triazin-2-yl]-amine] were below 100 nM and below 100 nM.
`Cc1ccc(S(=O)(=O)N(C)C)cc1-c1ccc2cnc(Nc3ccc(N4CCN(C)CC4)cc3)nn12` [Example 74, 4,N,N-Trimethyl-3-{2-[4-(4-methyl-piperazin-1-yl)-phenylamino]-pyrrolo[2,1-f][1,2,4]triazin-7-yl}-benzenesulfonamide]: the IC50 in assay [1] is below 100 nM; in assay [2] it was 100 to 1000 nM.
Turning to `COc1cc(N2CCN(C)CC2)ccc1Nc1ncc2ccc(-c3cc(S(=O)(=O)N(C)C)ccc3C)n2n1` [Example 75, 3-{2-[2-Methoxy-4-(4-methyl-piperazin-1-yl)-phenylamino]-pyrrolo[2,1-f][1,2,4]triazin-7-yl}-4,N,N-trimethyl-benzenesulfonamide], the IC50 in assay [1] and in assay [2] was 100 to 1000 nM in each case.
`COc1cc(N2CCN(C)CC2)ccc1Nc1ncc2ccc(-c3cccc(S(C)(=O)=O)c3)n2n1` [Example 76, [7-(3-Methanesulfonyl-phenyl)-pyrrolo[2,1-f][1,2,4]triazin-2-yl]-[2-methoxy-4-(4-methyl-piperazin-1-yl)-phenyl]-amine]: the IC50 in assay [1] and in assay [2] was below 100 nM in each case.
Regarding `COc1cc(N2CCN(C)CC2)ccc1Nc1ncc2ccc(-c3ccc(C#N)nc3)n2n1` [Example 77, 5-{2-[2-Methoxy-4-(4-methyl-piperazin-1-yl)-phenylamino]-pyrrolo[2,1-f][1,2,4]triazin-7-yl}-pyridine-2-carbonitrile], the results for the IC50 in assay [1] and in assay [2] were below 100 nM and 100 to 1000 nM, respectively.
As for `CN1CCN(c2ccc(Nc3ncc4ccc(Sc5ccccc5)n4n3)cc2)CC1` [Example 78, [4-(4-Methyl-piperazin-1-yl)-phenyl]-(7-phenylsulfanyl-pyrrolo[2,1-f][1,2,4]triazin-2-yl)-amine], the IC50 in assay [1] and in assay [2] was below 100 nM throughout.
On to `Clc1cccc(-c2ccc3cnc(Nc4ccc(N5CCOCC5)nc4)nn23)c1` [Example 79, [7-(3-Chloro-phenyl)-pyrrolo[2,1-f][1,2,4]triazin-2-yl]-(6-morpholin-4-yl-pyridin-3-yl)-amine], for which the IC50 is below 100 nM in assay [1] and above 10000 nM in assay [2].
On to `Clc1cc(N2CCOCC2)ccc1Nc1ncc2c(Cl)cc(-c3ccccc3)n2n1` [Example 80, (2-Chloro-4-morpholin-4-yl-phenyl)-(5-chloro-7-phenyl-pyrrolo[2,1-f][1,2,4]triazin-2-yl)-amine], for which the IC50 was below 100 nM in assay [1] and above 10000 nM in assay [2].
In the case of `CN1CCN(c2ccc(Nc3ncc4ccc(-c5cccc(S(C)(=O)=O)c5)n4n3)cc2)CC1` [Example 82, [7-(3-Methanesulfonyl-phenyl)-pyrrolo[2,1-f][1,2,4]triazin-2-yl]-[4-(4-methyl-piperazin-1-yl)-phenyl]-amine], the IC50 was below 100 nM in assay [1] and 100 to 1000 nM in assay [2].
Taken in the same sequence, the figures for `CN1CCN(c2ccc(Nc3ncc4ccc(-c5ccc(S(=O)(=O)N(C)C)cc5)n4n3)cc2)CC1` [Example 83, N,N-Dimethyl-4-{2-[4-(4-methyl-piperazin-1-yl)-phenylamino]-pyrrolo[2,1-f][1,2,4]triazin-7-yl}-benzenesulfonamide] were below 100 nM and 100 to 1000 nM.
Regarding `CN1CCN(c2ccc(Nc3ncc4c(Br)cc(Br)n4n3)cc2)CC1` [Example 84, (5,7-Dibromo-pyrrolo[2,1-f][1,2,4]triazin-2-yl)-[4-(4-methyl-piperazin-1-yl)-phenyl]-amine], the results for the IC50 in assay [1] and in assay [2] were below 100 nM and 1000 to 10000 nM, respectively.
Turning to `CN(C)S(=O)(=O)c1ccc(-c2ccc3cnc(Nc4ccc(N5CCCCC5)cc4)nn23)cc1` [Example 86, N,N-Dimethyl-4-[2-(4-piperidin-1-yl-phenylamino)-pyrrolo[2,1-f][1,2,4]triazin-7-yl]-benzenesulfonamide], the IC50 is below 100 nM in assay [1] and above 10000 nM in assay [2].
For `CS(=O)(=O)c1ccc(-c2ccc3cnc(Nc4ccc(N5CCC(CO)CC5)cc4)nn23)cc1` [Example 87, (1-{4-[7-(4-Methanesulfonyl-phenyl)-pyrrolo[2,1-f][1,2,4]triazin-2-ylamino]-phenyl}-piperidin-4-yl)-methanol], the IC50 in assay [1] is below 100 nM; in assay [2] it was 1000 to 10000 nM.
Regarding `CS(=O)(=O)c1ccc(-c2ccc3cnc(Nc4ccc(N5CCN(CCO)CC5)cc4)nn23)cc1` [Example 88, 2-(4-{4-[7-(4-Methanesulfonyl-phenyl)-pyrrolo[2,1-f][1,2,4]triazin-2-ylamino]-phenyl}-piperazin-1-yl)-ethanol], the IC50 was below 100 nM in assay [1] and 100 to 1000 nM in assay [2].
Consider `COCCN1CCc2ccc(Nc3ncc4ccc(-c5ccc(S(C)(=O)=O)cc5)n4n3)cc2CC1` [Example 89, [7-(4-Methanesulfonyl-phenyl)-pyrrolo[2,1-f][1,2,4]triazin-2-yl]-[3-(2-methoxy-ethyl)-2,3,4,5-tetrahydro-1H-benzo[d]azepin-7-yl]-amine], for which the IC50 in assay [1] was below 100 nM; in assay [2] it was 100 to 1000 nM.
Consider `CN1CCN(c2ccc(Nc3ncc4c(Br)cc(-c5ccc(S(C)(=O)=O)cc5)n4n3)cc2)CC1` [Example 91, [5-Bromo-7-(4-methanesulfonyl-phenyl)-pyrrolo[2,1-f][1,2,4]triazin-2-yl]-[4-(4-methyl-piperazin-1-yl)-phenyl]-amine], for which the IC50 in assay [1] was below 100 nM; in assay [2], 100 to 1000 nM.
